This note sets out measurements from ChEMBL document CHEMBL1765013, “Structure-activity relationships in a series of C2-substituted gluco-configured tetrahydroimidazopyridines as β-glucosidase inhibitors” (Bioorg Med Chem, 2011).

The assay is described as follows: Inhibition of sweet almond beta-glucosidase after 10 mins using 4-nitrophenylbeta-D-glucopyranoside as a substrate by Lineweaver-Burk and double reciprocal analysis. More on the design: species or system Prunus dulcis.
As a reminder, the Ki is a measure of affinity in units of concentration, obtained from inhibition or displacement. A lower Ki goes with tighter binding. The molecule `OC[C@@H]1[C@@H](O)[C@H](O)[C@@H](O)c2nccn21` had a Ki of 100 nM.

On to `OC[C@@H]1[C@@H](O)[C@H](O)[C@@H](O)c2nc(CCc3ccccc3)cn21`, for which the Ki was found to be 1.9 nM.

`CC(C)(C)CCc1cn2c(n1)[C@H](O)[C@@H](O)[C@H](O)[C@H]2CO` returned a Ki of 0.64 nM. Compared with the last molecule, the Ki is about 3-fold lower.

`CCCCCCCCc1cn2c(n1)[C@H](O)[C@@H](O)[C@H](O)[C@H]2CO` had a Ki of 10.7 nM. Against the preceding molecule, the Ki is about 17-fold higher.

For the molecule `Cc1ccc(CCc2cn3c(n2)[C@H](O)[C@@H](O)[C@H](O)[C@H]3CO)cc1`, the affinity, expressed as Ki, was 0.58 nM. Compared with the last molecule, the Ki is about 18-fold lower.

The molecule `COc1ccc(CCc2cn3c(n2)[C@H](O)[C@@H](O)[C@H](O)[C@H]3CO)cc1` registered a Ki of 2 nM.

`OC[C@@H]1[C@@H](O)[C@H](O)[C@@H](O)c2nc(CCc3ccc(-c4ccccc4)cc3)cn21` showed a Ki of 24.5 nM.

`OC[C@@H]1[C@@H](O)[C@H](O)[C@@H](O)c2nc(CCc3ccc(C4CCCCC4)cc3)cn21`: affinity was put at a Ki of 56.1 nM.

On to `OC[C@@H]1[C@@H](O)[C@H](O)[C@@H](O)c2nc(CCc3ccc(F)cc3)cn21`, for which the affinity, expressed as Ki, was 3.2 nM.

Molecule `O=C(CCc1cn2c(n1)[C@H](O)[C@@H](O)[C@H](O)[C@H]2CO)Nc1ccccc1` yielded a Ki of 6.8 nM. Compared with the last molecule, the Ki is about 2.1-fold higher.

As for `CC(C)(CCc1cn2c(n1)[C@H](O)[C@@H](O)[C@H](O)[C@H]2CO)C(=O)Nc1ccccc1`, the Ki worked out at 3.5 nM.
